From US11142504B2, “Substituted heterocycles as c-MYC targeting agents” (Northwestern University, priority 2016, dated 2021) come the findings set out here.

One assay has as its system MycCap cells. Description: Cell viability of MycCap cells. The format is cell-based. The following applies: Mus musculus, Myc-CaP.
A further assay deals with PC12 cells. Description: Cell viability of PC12 cells. Type of assay: cell-based. The conditions noted are these: Rattus norvegicus, PC-12; Cell viability of PC12 cells. As to the method: PC3 prostate cancer cell line with high Myc level and PC12 pheochromocytoma tumor cell line with non functional Max protein, which is not dependent on Myc-Max complex, were phased from ATCC. Cells were plated in 96 well plate at 1000 cells per well, and Myc inhibitor 361 at various concentrations was added to the cells next day. After 3 days of treatment, fresh medium with 361 were added again, and cell viability was measured by MTS assay at day 5 after the treatment. (See FIG. 11).

Regarding `CCc1ccc(Oc2c(-c3ccc(OCCc4cccc(C(F)(F)F)c4)cc3O)n[nH]c2C(F)(F)F)cc1` [NUCC-0176245], half-maximal inhibition in the assay with MycCap cells (IC50) required 4.1 µM. The same measure, in the same setting: under `COc1ccc(-c2c(-c3ccc(OCc4ccc(Cl)cc4)cc3O)n[nH]c2C(F)(F)F)cc1OC` [NUCC-0196283] stands 2.3 µM. `CCc1ccc(Oc2c(-c3ccc(OCc4cccc(Cl)c4)cc3O)n[nH]c2C(F)(F)F)cc1` [NUCC-0196295]: it took 12.2 µM to reach half-maximal inhibition in the assay on MycCap cells (IC50).

In the case of `COc1ccc(-c2c(-c3ccc(OCc4ccc(Cl)cc4)cc3O)n[nH]c2C(F)(F)F)cc1` [NUCC-0196312], the IC50 (as a rule, the point on the concentration scale where inhibition reaches its midpoint) with MycCap cells is 4.8 µM. The same measure, in the same setting: the figure for `Oc1cc(OCc2ccc(Cl)cc2)ccc1-c1cc(C(F)(F)F)[nH]n1` [NUCC-0196313] is 4.2 µM. The same measure, in the same setting: under `Cc1ccc(-c2c(OCc3ccc(Cl)cc3)ccc(-c3cc(C(F)(F)F)[nH]n3)c2O)cc1` [NUCC-0196344] stands 6.6 µM.

Turning to `Cn1nc(-c2ccc(OCc3ccc(Cl)cc3)c(-c3ccc(F)cc3)c2O)cc1C(F)(F)F` [NUCC-0196348], the IC50 in the assay with MycCap cells came out at 110 µM. Compared with the last compound, the IC50 is about 17-fold higher. Same read-out and setting: the figure for `Oc1cc(OCc2ccc(Cl)cc2)ccc1-c1n[nH]cc1-c1cccc(Cl)c1` [NUCC-0196350] is 4.3 µM; for `CCc1ccc(Oc2c(-c3ccc(OCc4ccc(Cl)c(Cl)c4)cc3O)n[nH]c2C(F)(F)F)cc1` [NUCC-0196355] it is 11.8 µM; for `CCc1ccc(Oc2c(-c3ccc(OCCc4ccc(Cl)cc4)cc3O)n[nH]c2C(F)(F)F)cc1` [NUCC-0196357] it is 6.9 µM. Still for that read-out and setting: the figure for `Cn1nc(-c2ccc(OCc3ccc(Cl)cc3)c(-c3cc(C(F)(F)F)cc(C(F)(F)F)c3)c2O)cc1C(F)(F)F` [NUCC-0196360] is 39.6 µM; for `Oc1cc(OCc2ccc(Cl)cc2)ccc1-c1n[nH]cc1-c1cc(C(F)(F)F)cc(C(F)(F)F)c1` [NUCC-0198318] it is 4.3 µM. On the same count and under the same terms, under `Oc1cc(OCc2ccc(Cl)cc2)ccc1-c1n[nH]cc1-c1ccoc1` [NUCC-0198322] stands 6.5 µM; under `Cc1cc(C)c(-c2c[nH]nc2-c2ccc(OCc3ccc(Cl)cc3)cc2O)c(C)c1` [NUCC-0198359], 7.6 µM; under `N#Cc1ccc(-c2c(OCc3ccc(Cl)cc3)ccc(-c3cc(C(F)(F)F)[nH]n3)c2O)cc1` [NUCC-0198391], 3.4 µM. Compound `NC(=O)c1ccc(-c2c(OCc3ccc(Cl)cc3)ccc(-c3cc(C(F)(F)F)[nH]n3)c2O)cc1` [NUCC-0198394] showed an IC50 with MycCap cells of 7.3 µM. With `N#Cc1cccc(-c2c(OCc3ccc(Cl)cc3)ccc(-c3cc(C(F)(F)F)[nH]n3)c2O)c1` [NUCC-0198398], in the assay on MycCap cells, the midpoint of inhibition, the IC50, lay at 4.3 µM. This IC50 lies about 1.7-fold lower than the previous one.

On to `CCc1ccc(Oc2c(-c3ccc(O)cc3O)n[nH]c2C(F)(F)F)cc1` [NUCC-0198406], for which the IC50 with MycCap cells is 17.5 µM. This IC50 is about 4.1-fold higher than that of the compound before. On the same count and under the same terms, the figure for `Cn1nc(C(F)(F)F)cc1-c1ccc(OCc2ccc(Cl)cc2)c(Br)c1O` [NUCC-0198407] is 7.8 µM. On to `Cn1nc(-c2ccc(OCc3ccc(Cl)cc3)c(-c3cccc(C#N)c3)c2O)cc1C(N)=O` [NUCC-0200558], for which the half-maximal inhibitory concentration (IC50) in the assay on MycCap cells turned out to be 49.3 µM; in the assay with PC12 cells it was 31 µM. As to `O=C(O)c1cc(-c2ccc(OCc3ccc(Cl)cc3)c(-c3cc(C(F)(F)F)cc(C(F)(F)F)c3)c2O)n[nH]1` [NUCC-0200973], the IC50 in the assay on MycCap cells was 68.3 µM; in the assay on PC12 cells it was 29.6 µM. In the assay with MycCap cells, `Cn1nc(C(F)(F)F)cc1-c1ccc(OCc2ccc(Cl)cc2)c(-c2cccc(C(F)(F)F)c2)c1O` [NUCC-0200974] displayed an IC50 of 10.2 µM. Take `N#Cc1cncc(-c2c(OCc3ccc(Cl)cc3)ccc(-c3cc(C(F)(F)F)n[nH]3)c2O)c1` [NUCC-0201038]: the results for the IC50 in the assay with MycCap cells and in the assay on PC12 cells were 6.8 µM and 18.3 µM, respectively. `CCOc1ncc(C(F)(F)F)cc1-c1c(OCc2ccc(Cl)cc2)ccc(-c2cc(C(F)(F)F)n[nH]2)c1O` [NUCC-0201039] gave an IC50 with MycCap cells of 13.6 µM. This counts as double-digit micromolar. Consider `COc1ccc(COc2ccc(-c3cc(C(F)(F)F)n[nH]3)c(O)c2-c2cc(C(F)(F)F)cc(C(F)(F)F)c2)cc1` [NUCC-0201041], for which the IC50 with MycCap cells is 12.6 µM; in the assay with PC12 cells it was 128 µM.

As to `CCCCCCOc1ccc(-c2cc(C(F)(F)F)n[nH]2)c(O)c1-c1cncc(C#N)c1` [NUCC-0201194], the IC50 is 4.2 µM in the assay on MycCap cells and 59.8 µM with PC12 cells.

With `CC(C)CCOc1ccc(-c2cc(C(F)(F)F)n[nH]2)c(O)c1-c1cncc(C#N)c1` [NUCC-0201195], the results for the IC50 with MycCap cells and in the assay on PC12 cells were 14.9 µM and 70.3 µM, respectively.

For `CCCOc1ccc(-c2cc(C(F)(F)F)n[nH]2)c(O)c1-c1cc(C(F)(F)F)cc(C(F)(F)F)c1` [NUCC-0201197], the values for the IC50 with MycCap cells and in the assay on PC12 cells were 3.4 µM and 18.6 µM, respectively.

For the compound `CC(CCOc1ccc(-c2cc(C(F)(F)F)n[nH]2)c(O)c1-c1cc(C(F)(F)F)cc(C(F)(F)F)c1)C(F)(F)F` (stereo not drawn) [NUCC-0201198], the results for the IC50 with MycCap cells and with PC12 cells were 2.6 µM and 8.2 µM, respectively. On to `[N-]=[N+]=NCCOCCOCCOCC(=O)Nc1ccc(COc2ccc(-c3cc(C(F)(F)F)n[nH]3)c(O)c2-c2cc(C(F)(F)F)cc(C(F)(F)F)c2)cc1` [NUCC-0201199], for which the figures for the IC50 in the assay on MycCap cells and in the assay on PC12 cells were 3 µM and 12.7 µM, respectively. Take `O=C1CCC(N2C(=O)c3cccc(OCc4cn(CCOCCOCCOCC(=O)Nc5ccc(COc6ccc(-c7cc(C(F)(F)F)n[nH]7)c(O)c6-c6cc(C(F)(F)F)cc(C(F)(F)F)c6)cc5)nn4)c3C2=O)C(=O)N1` (stereo not drawn) [NUCC-0201202]: the figures for the IC50 with MycCap cells and in the assay with PC12 cells were 4 µM and 23.1 µM, respectively. For the compound `O=C1CCC(N2C(=O)c3cccc(OCc4cn(CCOCCOCCOCCOCC(=O)Nc5ccc(COc6ccc(-c7cc(C(F)(F)F)n[nH]7)c(O)c6-c6cc(C(F)(F)F)cc(C(F)(F)F)c6)cc5)nn4)c3C2=O)C(=O)N1` (stereo not drawn) [NUCC-0201203], half-maximal inhibition in the assay with MycCap cells (IC50) was put at 32.4 µM.

Turning to `CCCCOc1ccc(-c2cc(C(F)(F)F)nn2C)c(O)c1-c1cncc(C(F)(F)F)c1` [NUCC-0201204], it took 23 µM to reach half-maximal inhibition in the assay with MycCap cells (IC50). This IC50 and that of the compound before are within 1.5-fold of each other. On to `CCCCCCOc1ccc(-c2cc(C(F)(F)F)nn2C)c(O)c1-c1cncc(C(F)(F)F)c1` [NUCC-0201205], for which the IC50 in the assay with MycCap cells was found to be 9.5 µM; with PC12 cells it was 36.3 µM. In the assay on MycCap cells, `CC(C)CCOc1ccc(-c2cc(C(F)(F)F)nn2C)c(O)c1-c1cncc(C(F)(F)F)c1` [NUCC-0201206] returned an IC50 of 5 µM. Take `CCCCCCOc1ccc(-c2cc(C(F)(F)F)n(C)n2)c(O)c1-c1cncc(C#N)c1` [NUCC-0201212]: the IC50 in the assay with MycCap cells worked out at 23.7 µM; in the assay with PC12 cells it was 30.8 µM.

On to `C#CCOc1ccc(COc2ccc(-c3cc(C(F)(F)F)n[nH]3)c(O)c2-c2cc(C(F)(F)F)cc(C(F)(F)F)c2)cc1` [NUCC-0201219], for which inhibition in the assay on MycCap cells was half-maximal at 9.5 µM (IC50). `COc1ccc(-c2cc(C(F)(F)F)[nH]n2)c(O)c1-c1cc(C(F)(F)F)cc(C(F)(F)F)c1` [NUCC-0201220]: the IC50 in the assay on MycCap cells is 4.9 µM; in the assay with PC12 cells, 91.6 µM. Turning to `COc1ccc(-c2cc(C(F)(F)F)n(C)n2)c(O)c1-c1cc(C(F)(F)F)cc(C(F)(F)F)c1` [NUCC-0201221], the IC50 in the assay on MycCap cells turned out to be 1.2 µM. As for `CCCCOc1ccc(-c2cc(C(F)(F)F)n[nH]2)c(O)c1-c1ccc(Cl)c(C(F)(F)F)c1` [NUCC-0201225], the results for the IC50 in the assay with MycCap cells and in the assay on PC12 cells were 19 µM and 82.6 µM, respectively.

As for `CCCCOc1ccc(-c2cc(C(F)(F)F)n(C)n2)c(O)c1-c1ccc(Cl)c(C(F)(F)F)c1` [NUCC-0201227], the IC50 in the assay on MycCap cells was found to be 4.5 µM; in the assay with PC12 cells it was 1 µM. `C#CCC(N=[N+]=[N-])C(=O)Nc1ccc(COc2ccc(-c3cc(C(F)(F)F)n(C)n3)c(O)c2-c2cncc(C(F)(F)F)c2)cc1` (stereo not drawn) [NUCC-0201699]: the IC50 in the assay on MycCap cells worked out at 24.3 µM. This counts as double-digit micromolar.
